The target in one test is T1, hMGL (Homo sapiens, UniProt Q99685).
T1 construct: A full-length cDNA clone of the human MGL transcript variant 1; made in house; host or cells: E. coli BL21 (DE3)
T1 sequence (Q99685 2-303 limits assumed): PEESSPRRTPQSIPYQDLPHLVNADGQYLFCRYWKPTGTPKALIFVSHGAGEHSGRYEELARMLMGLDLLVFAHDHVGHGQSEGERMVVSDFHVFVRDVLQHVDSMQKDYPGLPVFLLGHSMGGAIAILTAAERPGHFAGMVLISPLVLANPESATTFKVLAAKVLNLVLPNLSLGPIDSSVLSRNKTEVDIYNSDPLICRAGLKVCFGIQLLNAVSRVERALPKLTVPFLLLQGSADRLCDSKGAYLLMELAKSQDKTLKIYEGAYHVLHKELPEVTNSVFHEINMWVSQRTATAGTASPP
The test is described as follows: Fluorescent enzyme assay, MGL (AHMMCE hydrolysis). The class given is biochemical. The conditions noted are these: for inhibition at 0.01 µM: 10 nM inhibitor, read-out: % Inhibition of Enzyme by inhibitor, MGL, 10 nM; for inhibition at 0.01 µM / inhibition at 1 µM: screening assay; for inhibition at 1 µM: 1000 nM inhibitor; for inhibition at 100 µM: 100 uM inhibitor, printed in the 1000 nM column. As for the experimental part:
(§1) Some analogs were tested for their FAAH/MGL inhibitory activity, which is expressed as % of inhibition (Tables 2, 3, and 4 below). The percentage of inhibition results from three-point assay (three concentrations of inhibitor are used) and it is less accurate (preliminary screening) than the IC50/Ki values that are determined from eight-point assay (eight different concentrations of inhibitor were used). The percentage of inhibition describes the percentage by which the inhibitor reduces the velocity/rate of AAMCA (arachidonoyl-7-amino-4-methylcoumarin amide) or AHMMCE (arachidonoyl-7-hydroxy-6-methoxy-4-methylcoumarin ester) hydrolysis by FAAH or MGL respectively. The IC50 is the concentration of the inhibitor, which results in 50% inhibition of the velocity/rate of AAMCA (arachidonoyl 7-amino-4-methylcoumarin amide) hydrolysis by FAAH or AHMMCE (Arachidonoyl, 7-hydroxy-6-methoxy-4-methylcoumarin ester) hydrolysis by MGL. The Ki value is the affinity constant and describes the ability of the compounds to inhibit the function of FAAH or MGL. The lower the IC50/Ki values, the higher the affinity of the inhibitor for the enzyme and the higher its inhibitory activity. A detailed description of the methods used to test inhibitory activity of compounds is given below.
A full-length cDNA clone of the human MGL transcript variant 1 (gi: 51242951) was obtained from OriGene Technologies (Rockville, Md.). The coding part of the MGL sequence (except the translation initiation codon ATG) was amplified by a polymerase chain reaction (PCR) using forward […] and reverse […] primers containing PmlI and SacI restriction enzyme recognition sites, respectively. iProof high-fidelity DNA polymerase (Bio-Rad, Hercules, Calif.) was used in the PCR amplification with 33 cycles, each consisting of denaturation at 94° C. for 10 s, annealing at 55° C. for 33 s, and extension at 72° C. for 1 min. The PCR product and pET45b vector were digested with PmlI and SacI restriction enzymes, and the vector was dephosphorylated with CIP followed by in-gel purification using the MinElute Gel Extraction Kit (Qiagen Corp., Valencia, Calif.). The fragment was inserted into the vector directly downstream after the 6 histidine and valine codons, generating the construct pET45His6hMGL for expression of hMGL containing an N-terminal His6-tag. GC10 E. coli cells were used for DNA transformation and plasmid propagation. Mini- and midi-scale plasmid DNA preparations were performed using a GenElute Plasmid Miniprep Kit (Sigma) and PureYield Plasmid Midiprep System (Promega, Madison, Wis.), respectively. In-frame vector-fragment junctions and the coding sequence of the recombinant gene were confirmed by sequencing. The pET45His6hMGL construct was transformed into BL21 (DE3) and Origami (DE3) E. coli expression strains (Novagen, Madison, Wis.).
A single E. coli BL21 (DE3) colony containing the pET45His6hMGL plasmid was inoculated into 12 mL of Luria broth-ampicillin medium and grown overnight with shaking (250 rpm) at 37° C. The next morning, 10 mL of this culture was inoculated into 1 L of fresh Luria broth-ampicillin and allowed to grow until culture turbidity reached an (OD)600 of 0.6-0.8, at which time expression from the T7 promoter was induced by adding isopropyl-β-D-thio-galactopyranoside (1 mM). After 5 h induction, the cells were harvested by centrifugation at 5,000 g for 10 min at 4° C., washed with PBS, and held at −80° C. Five grams (wet-weight) of cells were resuspended in 50 mL lysis buffer (100 mM NaCl; 50 mM Tris, pH 8.0) supplemented with Triton X-100 (0.5%), lysozyme (0.2 mg/mL), and DNase I (25 μg/ml) and disrupted on ice by three, one-min sonication cycles, each consisting of 1-sec sonication bursts at 50 W power separated from each other by a 2-sec interval (Vibra-Cell 500 W, Sonics, Newtown, Conn.). The cell lysate was centrifuged at 10,000 g for 30 min at 4° C. […]

Another test concerns the target T2, ΔTM rFAAH (Rattus norvegicus, UniProt P97612).
T2 construct: 15 ug of ΔTM rFAAH (cell lysate obtained by recombinant procedure); made in house
T2 sequence (P97612 30-579 limits assumed): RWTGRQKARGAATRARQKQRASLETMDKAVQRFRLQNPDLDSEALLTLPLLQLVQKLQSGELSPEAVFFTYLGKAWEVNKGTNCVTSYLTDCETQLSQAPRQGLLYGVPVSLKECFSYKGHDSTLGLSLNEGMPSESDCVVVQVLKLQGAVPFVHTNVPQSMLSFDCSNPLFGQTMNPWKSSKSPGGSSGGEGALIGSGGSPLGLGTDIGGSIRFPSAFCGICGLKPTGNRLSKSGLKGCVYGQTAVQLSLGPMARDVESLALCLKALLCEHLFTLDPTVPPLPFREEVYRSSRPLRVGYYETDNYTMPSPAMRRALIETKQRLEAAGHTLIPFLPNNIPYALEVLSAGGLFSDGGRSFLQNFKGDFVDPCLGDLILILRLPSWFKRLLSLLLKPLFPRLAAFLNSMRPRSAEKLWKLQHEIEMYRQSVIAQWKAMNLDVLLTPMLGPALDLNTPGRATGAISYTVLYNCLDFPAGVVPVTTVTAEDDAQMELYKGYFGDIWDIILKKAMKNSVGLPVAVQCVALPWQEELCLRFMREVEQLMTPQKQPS
The experiment in a line: Fluorescent enzyme assay, FAAH (AAMCA hydrolysis). Format: biochemical. The conditions noted are these: AAMCA substrate; for inhibition at 0.01 µM: 10 nM inhibitor; for inhibition at 0.01 µM / inhibition at 1 µM: screening assay; for inhibition at 1 µM: 1000 nM inhibitor; for IC50: eight-point dose response. As for the experimental part:
as §1
The enzyme (FAAH and MGL) assays were performed in 96 well plates (Coster #3650) in a total volume of 200 uL. Fluorogenic substrate AAMCA (arachidonoyl 7-amino-4-methylcoumarin amide) for FAAH and AHMMCE (arachidonoyl 7-hydroxy-6-methoxy-4-methylcoumarin ester) for MGL were used using BioTek Synergy HT Microplate Reader. Compounds and substrates were dissolved in DMSO provide a 10 mM stock solution and kept as a stock solution at −20° C. until used for assay. Stock solutions were thawed and reconstituted in 50:50 DMSO/assay buffer to a final DMSO concentration per well below 8%. This ensures that the compounds and substrate are in solution during assay. […] Appropriate substrate was added to adjust the final concentration in each well to 20 uM for FAAH (2× Km) and 10 uM for MGL (1×KM). Fluorescence readings were performed at λex=360/λem=460 for 4 h using Kinetic assay protocol at every 20 min (the fluorescent product coumarin produced is quantitated by this procedure). The readings at 3 h for FAAH and 2 h for MGL (linear maximum hydrolysis kinetics of enzyme on substrate) were used to calculate percent inhibition based on controls. Compounds which had more than 50 percent inhibition at 10 uM were selected for dose response study to determine IC50 values. The dose response at 8 concentration points was performed as with the screening assay except that compounds were serially diluted to 8 concentration points which were chosen based on IC50 value, which were calculated from the screening assay results. Assays are run twice in triplicates and Graphpad Prism software is used to plot inhibition data to obtain IC50 values.

The term inhibition denotes the share of the control response that was lost under treatment. For the compound `CN(C)C(=O)n1nnnc1Cc1ccc(Cl)cc1` [Compound 21b], the inhibition at 0.01 µM came out at 54% on hMGL (AHMMCE substrate) and 93% at ΔTM rFAAH. Regarding `O=C(N1CCC2(CC1)OCCO2)n1nnc(Cc2ccc(Cl)cc2Cl)n1` [Compound 14], the results for the inhibition at 1 µM at hMGL (AHMMCE substrate) and on ΔTM rFAAH were 52% and 97%, respectively. Usually IC50 stands for the concentration that inhibits the measured activity by half. Consider `O=C(N(c1ccccc1)c1ccccc1)n1nnc(Cc2ccc(Cl)cc2Cl)n1` [Compound 8a, 5-(2,4-dichlorobenzyl)-N,N-diphenyl-2H-tetrazole-2-carboxamide], for which the inhibition at 1 µM against hMGL (AHMMCE substrate) was 100%; at ΔTM rFAAH, 66%. Moreover, the IC50 against hMGL (eight-point dose response, AHMMCE substrate) turned out to be 40 nM; at ΔTM rFAAH, 1300 nM. As for `Cc1ccc(Cc2nnnn2C(=O)N(C)C)cc1` [Compound 26b], the inhibition at 0.01 µM at hMGL (AHMMCE substrate) came to 23%; at ΔTM rFAAH it was 85%. Take `CN(C)C(=O)n1nnc(Cc2ccncc2)n1` [Compound 39, N,N-dimethyl-5-(pyridin-4-ylmethyl)-2H-tetrazole-2-carboxamide]: the figures for the inhibition at 1 µM against hMGL (AHMMCE substrate) and on ΔTM rFAAH were 40% and 21%, respectively. For `CN(C)S(=O)(=O)n1nnc(Cc2ccc(-c3ccccc3)cc2)n1` [Compound 38a], the inhibition at 1 µM at ΔTM rFAAH was determined as 25%. In turn, `CN(CCCCCl)C(=O)n1cnc(-c2ccccc2)c1` [Compound 47, N-(4-chlorobutyl)-N-methyl-4-phenyl-1H-imidazole-1-carboxamide] yielded an inhibition at 1 µM against hMGL (AHMMCE substrate) of 15%. At ΔTM rFAAH, the inhibition at 0.01 µM is 12%, the inhibition at 1 µM is 90% and the IC50 worked out at 78 nM. Regarding `CN(C)C(=O)n1nnc(Cc2ccc(-c3ccncc3)cc2)n1` [Compound 44, N,N-dimethyl-5-(4-(pyridin-4-yl)benzyl)-2H-tetrazole-2-carboxamide], the inhibition at 1 µM is 10% at hMGL (AHMMCE substrate) and 12% on ΔTM rFAAH. `CN(C)C(=O)n1nnnc1-c1cc2ccccc2[nH]1` [Compound 3b, 5-(1H-indol-2-yl)-N,N-dimethyl-2H-tetrazole-1-carboxamide]: the inhibition at 0.01 µM at hMGL (AHMMCE substrate) amounted to 92%; on ΔTM rFAAH it was 97%. Consider `O=C(N1CCN(Cc2ccc3ccccc3n2)CC1)n1nnc(Cc2ccc(Cl)cc2Cl)n1` [Compound 65, (5-(2,4-dichlorobenzyl)-2H-tetrazol-2-yl)(4-(quinolin-2-ylmethyl)piperazin-1-yl)methanone], for which, on hMGL, the inhibition at 100 µM stood at 68%. `CN(C)C(=O)n1ncnn1` [Compound 1a, N,N-dimethyl-2H-tetrazole-2-carboxamide]: the inhibition at 0.01 µM on hMGL (AHMMCE substrate) is 58%; on ΔTM rFAAH, 73%.

Turning to `CSc1ccc(Cc2nnnn2C(=O)N(C)C)cc1` [Compound 23b], the inhibition at 0.01 µM on hMGL (AHMMCE substrate) came out at 60%; on ΔTM rFAAH, 89%.

Take `O=C(N1CCOCC1)n1nnc(Cc2ccc(Cl)cc2Cl)n1` [Compound 6, 4-{[5-(2,4-dichlorobenzyl)-tetrazol-2-yl]carbonyl}morpholine]: the inhibition at 0.01 µM on hMGL (AHMMCE substrate) came out at 88%; at ΔTM rFAAH, 94%. Regarding `CN(C)C(=O)N1CC(C(C)(C)C)OC1=O` (stereo not drawn) [Compound 31, 5-tert-butyl-N,N-dimethyl-2-oxooxazolidine-3-carboxamide], the inhibition at 1 µM on hMGL (AHMMCE substrate) was found to be 66%; at ΔTM rFAAH, 63%. For the compound `COc1ccc(Cc2nnn(C(=O)N(C)C)n2)cc1` [Compound 24a, 5-(4-methoxybenzyl)-N,N-dimethyl-2H-tetrazole-2-carboxamide], the inhibition at 0.01 µM at hMGL (AHMMCE substrate) was determined as 21%; at ΔTM rFAAH, 47%. Turning to `CN(C)C(=O)n1nnc(Cc2ccc(-c3cccnc3)cc2)n1` [Compound 43, N,N-dimethyl-5-(4-(pyridin-3-yl)benzyl)-2H-tetrazole-2-carboxamide], on ΔTM rFAAH, the inhibition at 1 µM was found to be 34%. The compound `O=C(N1CCN(Cc2ccc3ccccc3n2)CC1)n1cnc(-c2ccccc2)c1` [Compound 64, (4-phenyl-1H-imidazol-1-yl)(4-(quinolin-2-ylmethyl)piperazin-1-yl)methanone] returned an inhibition at 100 µM at hMGL of 19%. With `CN(C)C(=O)n1nnc(C(F)(F)c2ccccc2)n1` [Compound 46, 5-(difluoro(phenyl)methyl)-N,N-dimethyl-2H-tetrazole-2-carboxamide], on hMGL (AHMMCE substrate), the inhibition at 0.01 µM was determined as 2% and the inhibition at 1 µM stood at 92%. On to `CN(C)C(=O)n1cnc(-c2ccccc2)n1` [Compound 52, N,N-dimethyl-3-phenyl-1H-1,2,4-triazole-1-carboxamide], for which, on hMGL (AHMMCE substrate), the inhibition at 0.01 µM was found to be 2% and the inhibition at 1 µM is 87%. Consider `CN(C)C(=O)n1nnc(Cc2ccccc2Cl)n1` [Compound 45, 5-(2-chlorobenzyl)-N,N-dimethyl-2H-tetrazole-2-carboxamide], for which the inhibition at 0.01 µM at hMGL (AHMMCE substrate) is 93%.

The values above are taken from patent US9271962B2 (NORTHEASTERN UNIVERSITY, priority 2008, dated 2016).
